The target of one assay is T1, CBC-ARS2 827–871 (Homo sapiens, UniProt P52298).
T1 sequence (P52298 1-156): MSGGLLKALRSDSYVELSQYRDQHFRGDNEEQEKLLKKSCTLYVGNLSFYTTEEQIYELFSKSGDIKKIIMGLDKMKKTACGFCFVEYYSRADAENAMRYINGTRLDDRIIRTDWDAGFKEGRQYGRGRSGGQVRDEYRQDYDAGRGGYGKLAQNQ
T1 sequence (Q09161 20-790 partner): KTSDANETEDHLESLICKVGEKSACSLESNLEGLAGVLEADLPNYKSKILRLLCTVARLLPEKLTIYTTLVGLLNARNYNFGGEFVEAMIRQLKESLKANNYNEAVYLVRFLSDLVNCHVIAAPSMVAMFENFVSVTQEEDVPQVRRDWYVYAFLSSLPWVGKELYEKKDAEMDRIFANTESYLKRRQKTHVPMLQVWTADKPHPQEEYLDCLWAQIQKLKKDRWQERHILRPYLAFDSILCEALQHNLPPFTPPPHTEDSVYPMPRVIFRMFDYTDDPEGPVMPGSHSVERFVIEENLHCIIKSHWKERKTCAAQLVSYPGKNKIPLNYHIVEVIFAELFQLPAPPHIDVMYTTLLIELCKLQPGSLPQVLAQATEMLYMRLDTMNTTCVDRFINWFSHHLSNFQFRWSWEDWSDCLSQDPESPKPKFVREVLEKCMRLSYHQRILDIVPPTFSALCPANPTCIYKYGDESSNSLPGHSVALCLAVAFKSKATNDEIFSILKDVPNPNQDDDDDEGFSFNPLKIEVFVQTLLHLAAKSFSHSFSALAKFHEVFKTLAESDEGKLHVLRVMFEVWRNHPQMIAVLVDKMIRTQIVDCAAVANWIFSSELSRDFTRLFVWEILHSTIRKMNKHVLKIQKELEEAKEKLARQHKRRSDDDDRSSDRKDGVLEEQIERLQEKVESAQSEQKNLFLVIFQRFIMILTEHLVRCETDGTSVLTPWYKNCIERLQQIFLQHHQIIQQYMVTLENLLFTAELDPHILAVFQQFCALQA
T1 sequence (Q9BXP5 832-876 partner): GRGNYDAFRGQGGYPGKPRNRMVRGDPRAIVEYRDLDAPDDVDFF
In words: ITC, m^7GTP titrated to CBC saturated with ARS2 827–871. In kind it is binding. An excerpt: (§1) Supplementary Figure 7. Influence of ARS2 and NELF-E on m7GTP binding to CBC.
(§2) Representative isothermal titration calorimetry data, presented as in the caption to Figure 1C,
(§3) allowing determination of the affinity of CBC to m7GTP in the absence (left) or in the
(§4) presence of bound ARS2827-871 (middle) or NELF-E244-380 (right). CBC or CBC saturated
(§5) with 2.2 molar excess of ARS2827-871 or NELF-E244-380 in the sample cell was titrated by
(§6) m7GTP. KD values represent the average from at least two independent experiments (see […]
(In general: In ITC the heat of successive injections is recorded.)

A further assay concerns the target T2, CBC (6 mutations) (Homo sapiens, UniProt P52298, D107R/Y50A/Y89A).
T2 sequence (P52298 1-156 Y50A/Y89A/D107R): T1 sequence (P52298 1-156) with Y50A, Y89A, D107R
T2 sequence (Q09161 20-790 Y461A/R610E/H651A partner): T1 sequence (Q09161 20-790 partner) with Y442A, R591E, H632A
In words: ITC, m^7GTP binding to CBC with triple mutants of both CBP20 and CBP80. To be noted: 25 °C, pH 7.8, CBP80 Y461A/R610E/H651A + CBP20 Y50A/Y89A/D107R, mean ± SD of 2 experiments.

In the next assay the target is CBC-NELF-E 244–380 (Homo sapiens, UniProt P52298). In words: ITC, m^7GTP titrated to CBC saturated with NELF-E 244–380. The assay is classed as binding.
Description: as §1, §2, §3, §4, §5, §6

Setting [1] is: compared to m^7GTP binding to CBC alone.

The Kd is the free concentration of one partner at which half of the binding sites on the other are occupied at equilibrium, for simple one-to-one binding.

The structures appear in SMILES notation. Substitutions are numbered along the chain they refer to.

Chain of CBC-NELF-E 244–380 (P18615 244-380 partner, one chain of several): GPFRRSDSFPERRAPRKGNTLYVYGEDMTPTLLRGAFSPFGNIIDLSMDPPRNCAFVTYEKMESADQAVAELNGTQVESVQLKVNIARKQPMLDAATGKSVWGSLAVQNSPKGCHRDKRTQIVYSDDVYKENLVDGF
Description for CBC (6 mutations): For CBC, a triple mutant in CBP80 (Y461A/R610E/H651A) was combined with various mutations in CBP20 (Y50A, Y50A/Y89A, or Y50A/Y89A/D107R).
ITC experiments were performed on a MicroCal ITC200 system (Malvern). Proteins were dialyzed overnight in buffer 20 mM HEPES, 120 mM NaCl, 2 mM tris(2-carboxyethyl)phosphine, pH 7.8. Injections of 1.5 µl protein A were added at an interval of 120–180 s into 205 µl of protein B in the cell, with a stirring speed of 800 rpm at 25 °C. The experimental data were analysed with MicroCal ITC Origin and were fitted to a single-site binding equation.

In the case of `C[n+]1cn([C@@H]2O[C@H](COP(=O)(O)OP(=O)([O-])OP(=O)(O)O)[C@@H](O)[C@H]2O)c2nc(N)[nH]c(=O)c21` [m^7GTP], the Kd at CBC-ARS2 827–871 (25 °C, pH 7.8, CBC saturated with 2.2 molar excess of ARS2 827–871, titrated by m^7GTP, mean ± SD of 2 experiments, SD) is 18 ± 1 nM; on CBC (6 mutations), 70000 ± 4000 nM; on CBC-NELF-E 244–380 (25 °C, pH 7.8, CBC saturated with 2.2 molar excess of NELF-E 244–380, titrated by m^7GTP, mean ± SD of 3 experiments, SD), 44 ± 2 nM. The “Increase of the affinity of CBC for cap (m^7GTP) by saturating ARS2” value at CBC-ARS2 827–871 (setting [1]) is on record as ~ 7 factor. For the same compound, the “Increase of the affinity of CBC for cap (m^7GTP) by saturating NELF-E” value on CBC-NELF-E 244–380 (setting [1]) is listed as ~ 3 factor.

The values are drawn from paper PMC5670239, “Structural basis for mutually exclusive co-transcriptional nuclear cap-binding complexes with either NELF-E or ARS2” (Nature Communications, 2017).
